# Experimental data reported in patent publication US6066642A, “Dihydropyridine-, pyridine-, benzopyran-4-one- and triazoloquinazoline derivative, their preparation and their use as adenosine receptor antagonists” (priority 1998, dated 2000).
# Read-outs that look alike come from different tables or passages of the source.
# What was measured:
# Conditions in all cases: for inhibition at 100 µM: 10^-4 M
# human A3 receptors = target: T1, human A3 receptors (Homo sapiens, UniProt P0DMS8); test: radioligand binding, displacement of specific [125I]AB-MECA binding at human A3 receptors expressed in HEK-293 cells
# T1 construct: expressed in transfected cells; host or cells: HEK-293 cells (membranes)
# T1 sequence (P0DMS8 1-318): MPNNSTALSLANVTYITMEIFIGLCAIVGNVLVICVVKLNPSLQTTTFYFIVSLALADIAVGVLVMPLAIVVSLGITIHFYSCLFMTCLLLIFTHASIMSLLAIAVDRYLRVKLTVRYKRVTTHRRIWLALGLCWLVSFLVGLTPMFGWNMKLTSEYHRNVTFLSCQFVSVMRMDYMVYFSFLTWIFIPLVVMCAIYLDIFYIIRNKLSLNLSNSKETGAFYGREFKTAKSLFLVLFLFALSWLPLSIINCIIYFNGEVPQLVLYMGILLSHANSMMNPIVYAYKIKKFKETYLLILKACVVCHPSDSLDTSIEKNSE
# Procedure: A3 receptors expressed in HEK293 cells, in membranes, expressed as
# binding displaced at 100 μM.
# A1 receptors = target: T2, A1 receptors (Rattus norvegicus, UniProt P25099); test: biochemical; assay type: binding
# T2 sequence (P25099 1-326): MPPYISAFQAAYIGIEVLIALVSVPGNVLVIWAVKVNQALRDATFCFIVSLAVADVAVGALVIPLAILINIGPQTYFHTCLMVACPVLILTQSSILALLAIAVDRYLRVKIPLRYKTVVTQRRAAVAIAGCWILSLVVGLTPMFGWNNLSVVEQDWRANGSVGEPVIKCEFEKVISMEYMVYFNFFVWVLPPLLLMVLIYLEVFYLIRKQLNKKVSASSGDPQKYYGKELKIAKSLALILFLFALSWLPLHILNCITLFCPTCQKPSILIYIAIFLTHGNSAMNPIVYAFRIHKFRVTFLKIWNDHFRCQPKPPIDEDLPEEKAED
# Procedure: ^a Displacement of specific [^3 H] PIA binding in rat brain
# percentage of specific binding displaced at 100 μM.
# A2a receptors = target: T3, A2a receptors (Rattus norvegicus, UniProt P30543); test: radioligand binding, displacement of specific [3H]CGS 21680 binding in rat striatal membranes
# T3 construct: Displacement of specific [^3 H]; from tissue; host or cells: rat striatal membranes
# Procedure: ^b Displacement of specific [^3 H]
# or as a percentage of specific binding displaced at 100 μM.
# [1] = Table 12, [125I]AB-MECA, HEK membranes, read-out: Ki hA3
# [2] = Table 10, [3H]CGS 21680, rat striatal membranes, read-out: Ki rA2a
# [3] = Table 3, [3H]CGS 21680, rat striatal membranes, read-out: Ki rA2a
# [4] = Table 3, [125I]AB-MECA, HEK-293 membranes, read-out: Ki hA3
# [5] = Table 9, [3H]PIA, rat brain membranes, read-out: Ki rA1
# [6] = Table 9, [3H]CGS 21680, rat striatal membranes, read-out: Ki rA2A
# [7] = Table 6, [125I]AB-MECA, HEK-293 membranes, read-out: K2 (hA3)
# [8] = Table 11, [125I]AB-MECA, HEK membranes, read-out: Ki hA3
# [9] = Table 16, [125I]AB-MECA, HEK membranes, read-out: Ki hA3
# [10] = Table 7, [3H]CGS 21680, rat striatal membranes, read-out: Ki (rA2A)
# [11] = Table 7, read-out: % of specific binding displaced hA3
# [12] = Table 3, [3H]PIA, rat brain membranes, read-out: Ki rA1
# [13] = Table 15, [125I]AB-MECA, HEK membranes, read-out: Ki hA3
# [14] = Table 12, read-out: % inhibition rA2A
# [15] = Table 12, read-out: % inhibition rA1
# T3 sequence (P30543 whole entry): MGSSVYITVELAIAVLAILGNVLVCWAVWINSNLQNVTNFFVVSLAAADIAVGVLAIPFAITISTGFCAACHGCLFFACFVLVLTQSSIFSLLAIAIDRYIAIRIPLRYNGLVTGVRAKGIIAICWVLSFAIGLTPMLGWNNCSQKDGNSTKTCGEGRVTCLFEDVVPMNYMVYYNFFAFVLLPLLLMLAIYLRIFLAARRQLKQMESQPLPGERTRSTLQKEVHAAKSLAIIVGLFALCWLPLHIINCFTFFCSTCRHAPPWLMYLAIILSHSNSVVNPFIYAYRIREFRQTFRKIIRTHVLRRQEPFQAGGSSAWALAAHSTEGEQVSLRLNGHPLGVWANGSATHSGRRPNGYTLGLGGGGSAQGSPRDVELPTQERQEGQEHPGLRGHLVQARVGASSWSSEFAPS
molecule,measurement,setting,value
CCOC(=O)C1=C(C)NC(c2ccccc2)=C(C(=O)OCc2ccc(C(=O)NCCN)cc2)C1C#Cc1ccccc1 (stereo not shown) [Compound 123],Ki,human A3 receptors; [1],0.01 µM
CCOC(=O)c1c(C)nc(C)c(C(=O)OC)c1C [Compound 80],Ki,"A1 receptors; Table 10, [3H]PIA, rat brain membranes, read-out: Ki rA1",6.95 ± 2.66 µM
same,Ki,A2a receptors; [2],8.96 ± 0.93 µM
same,Ki,"human A3 receptors; Table 10, [125I]AB-MECA, HEK membranes, read-out: Ki hA3",29.5 ± 2.1 µM
"CCOc1ccc(-c2oc3cc(OCC)cc(OCC)c3c(=O)c2OCC)c(OCC)c1 [Compound 8, 2',3,4',5,7-Pentaethoxyflavone]",Ki,A2a receptors; [3],26.8 µM
same,Ki,human A3 receptors; [4],7.27 ± 1.88 µM
"COCCOC(=O)C1=C(C)NC(C)=C(C(=O)OC(C)C)C1c1cccc([N+](=O)[O-])c1 (stereo not shown) [Compound 64, reference compound]",Ki,A1 receptors; [5],20.1 µM
same,greater affinity to A1 than A2a adenosine receptors,A1 receptors; selectivity in words,greater affinity to A1 adenosine receptors than A2a receptors
same,Ki,"human A3 receptors; Table 9, [125I]AB-MECA, HEK membranes, read-out: Ki hA3",8.47 µM
same,greater affinity for A3 than A1 or A2a adenosine receptors,human A3 receptors; selectivity in words,greater affinity for A3 adenosine receptors than A1 or A2a adenosine receptors
CCOC(=O)C1=C(C)NC(c2ccccc2)=C(C(=O)OCC)C1/C=C/c1ccccc1 (stereo not shown) [Compound 79],Ki,A2a receptors; [6],4.77 ± 0.29 µM
same,greater affinity for A3 than A1 or A2a adenosine receptors,human A3 receptors; selectivity in words,greater affinity for A3 adenosine receptors than A1 or A2a adenosine receptors
"COc1ccc(-c2cc(=O)c3c(OC)c(OC)c(OC)cc3o2)cc1 [Compound 31, reference compound]",Ki,"A1 receptors; brain membranes, read-out: K2 (rA1)",1.29 ± 0.08 µM
same,Ki,human A3 receptors; [7],4.48 ± 0.14 µM
"COc1cc(O)c2c(c1)O[C@H](c1ccc(O)cc1)CC2=O [Compound 42, sakuranetin, reference compound]",Ki,"human A3 receptors; Table 7, [125I]AB-MECA, HEK-293 membranes, read-out: Ki (hA3)",3.4 ± 0.18 µM
CCOC(=O)C1=C(C)NC(c2ccccc2)=C(C(=O)OCc2ccccc2)C1C#Cc1ccc(N)c(I)c1 (stereo not shown) [Compound 104],Ki,human A3 receptors; [8],< 0.1 µM
"COC(=O)C1=C(C)NC(C)=C(C(=O)OCCCN2CCC(c3ccccc3)(c3ccccc3)CC2)C1c1cccc([N+](=O)[O-])c1 (stereo not shown) [Compound 65, reference compound]",greater affinity to A1 than A2a adenosine receptors,A1 receptors,greater affinity to A1 adenosine receptors than A2a receptors
same,greater affinity for A3 than A1 or A2a adenosine receptors,human A3 receptors,greater affinity for A3 adenosine receptors than A1 or A2a adenosine receptors
Nc1ccc(CC(=O)Nc2nc3ccc(Cl)cc3c3nc(-c4ccco4)nn23)cc1I [Compound 164],Ki,human A3 receptors; [9],0.001 µM
O=C(CCc1ccccc1)Nc1nc2ccc(Cl)cc2c2nc(-c3ccco3)nn12 [Compound 160],Ki,A2a receptors; read-out: Ki rA2A,0.0283 ± 0.0103 µM
same,Ki,human A3 receptors; [9],0.0297 ± 0.0077 µM
"COc1cc(O)c2c(=O)c(O)c(-c3ccc(O)c(O)c3)oc2c1 [Compound 36, rhamnetin, reference compound]",Ki,human A3 receptors; [7],1.38 ± 0.18 µM
"O=C1c2ccccc2-c2cc3c(cc21)OCO3 [Compound 49, 2,3-methylenedioxy-fluorene-9-one]",Ki,A2a receptors; [10],84 ± 6.9 µM
same,inhibition at 100 µM,human A3 receptors; [11],52 ± 6%
"O=c1cc(-c2ccccc2)oc2cccc(O)c12 [Compound 25, reference compound]",Ki,"A2a receptors; Table 6, [3H]CGS 21680, rat striatal membranes, read-out: K2 (rA2a)",6.2 ± 1.24 µM
same,inhibition at 100 µM,"human A3 receptors; Table 6, read-out: % inhibition hA3",47 ± 12%
"CCCOc1cc(OCCC)c2c(=O)c(OCCC)c(-c3ccccc3)oc2c1 [Compound 4, 3,5,7-Tripropyloxyflavone]",Ki,A1 receptors; [12],1.1 ± 0.2 µM
same,Ki,human A3 receptors; [4],0.317 µM
"9-Chloro-2-(2-furyl)-5-(4'-iodobenzoyl)amino[1,2,4]triazolo [1,5-c]quinazoline [Compound 152]",Ki,human A3 receptors; [13],0.0238 ± 0.0052 µM
COc1cc2c3c(oc(=O)c2cc1OC)CCCC3=O [Compound 45],Ki,A2a receptors; [10],29.9 ± 10.1 µM
same,inhibition at 100 µM,"human A3 receptors; Table 7, read-out: displacement of specific binding hA3",< 10%
"COc1cc(OC)c2c(=O)c(OC)c(-c3cc(OC)c(OC)c(OC)c3)oc2c1 [Compound 39, hexamethylmyricetin]",inhibition at 1 µM,"A1 receptors; Table 6, 10^-6 M, read-out: displacement of specific binding rA1",< 10%
same,Ki,human A3 receptors; [7],16.2 ± 2.2 µM
Nc1ccc(CC(=O)Nc2nc3ccc(Cl)cc3c3nc(-c4ccco4)nn23)cc1 [Compound 163],Ki,human A3 receptors; [9],0.004 µM
CCOC(=O)C1=C(C)NC(c2ccccc2)=C(C(=O)OCc2ccccc2)C1C#Cc1ccc(N)cc1 (stereo not shown) [Compound 103],Ki,human A3 receptors; [8],< 0.1 µM
COc1ccc(-c2ccncc2)cc1 [Compound 83],Ki,A2a receptors; [2],71 ± 29 µM
same,inhibition at 100 µM,"human A3 receptors; Table 10, read-out: displacement of specific binding hA3",< 10%
CCOC(=O)C1=C(C)NC(c2ccccc2)=C(C(=O)OCc2ccccc2)C1C#Cc1ccc([N+](=O)[O-])cc1 (stereo not shown) [Compound 102],Ki,human A3 receptors; [8],< 0.1 µM
"CCOCN1C(C)=C(C(=O)OCC)C(C#Cc2ccccc2)C(C(=O)O)=C1c1ccccc1 (racemic) [Compound 139, 1-Ethoxymethyl-3-ethoxycarbonyl-2-methyl-4-phenylethynyl-6-phenyl-1,4-(±)-dihydropyridine-5-carboxylic acid]",inhibition at 100 µM,A2a receptors; [14],36 ± 7%
same,rA1/hA3,human A3 receptors,> 1
same,Ki,human A3 receptors; [1],> 100 µM
"CCCOc1c2ccoc2cc2oc(/C=C/c3ccccc3)cc(=O)c12 [Compound 21, 4-propyloxy-7-trans-styryl-visnagin]",Ki,"human A3 receptors; Table 5, [125I]AB-MECA, HEK-293 membranes, read-out: Ki hA3",3.95 µM
"CCOC(=O)C1=C(C)NC(c2ccccc2)=C(C(=O)O)C1C#Cc1ccccc1 (racemic) [Compound 131, 3-Ethoxycarbonyl-2-methyl-4-phenylethynyl-6-phenyl-1,4(±)-dihydropyridine-5-carboxylic acid]",inhibition at 100 µM,A2a receptors; [14],16 ± 6%
same,inhibition at 10 µM,"human A3 receptors; Table 12, 10^-5 M, read-out: displacement of specific binding hA3",< 10%
Nc1nc2ccc(Cl)cc2c2nc(-c3ccc(Br)o3)nn12 [Compound 157],Ki,human A3 receptors; [13],0.054 ± 0.0131 µM
"O=c1c(-c2ccc(O)cc2)coc2cc(O)cc(O)c12 [Compound 40, genistein, reference compound]",inhibition at 100 µM,human A3 receptors; [11],20 ± 2%
"O=c1cc(-c2ccccc2)oc2ccccc12 [Compound 11a, flavone, reference compound]",Ki,A1 receptors; [12],3.28 ± 0.92 µM
same,Ki,A2a receptors; [3],3.45 ± 1.16 µM
"COC(=O)C1=C(C)NC(C)=C(C(=O)OCCN(C)Cc2ccccc2)C1c1cccc([N+](=O)[O-])c1 (stereo not shown) [Compound 63, reference compound]",Ki,A1 receptors; [5],19.6 µM
same,greater affinity to A1 than A2a adenosine receptors,A1 receptors; selectivity in words,greater affinity to A1 adenosine receptors than A2a receptors
same,Ki,A2a receptors; [6],63.8 µM
CCOC(=O)C1=C(C)NC(c2ccccc2)=C(C(=O)OCc2ccccc2)C1/C=C/c1ccccc1 (stereo not shown) [Compound 99],inhibition at 100 µM,"A1 receptors; Table 11, read-out: % inhibition rA1",35 ± 3%
same,inhibition at 100 µM,"A2a receptors; Table 11, read-out: % inhibition rA2A",15%
"O=C1c2ccccc2O[C@H](c2ccccc2O)[C@H]1O (relative stereo) [Compound 14, reference compound]",inhibition at 100 µM,"A2a receptors; Table 4, read-out: displacement of specific binding rA2a",< 10%
same,inhibition at 100 µM,"human A3 receptors; Table 4, read-out: % of specific binding displaced hA3",27 ± 3%
same,rA1/hA3,"human A3 receptors; Table 4, ratio of Ki",< 1
"CCOC(=O)C1=C(C)NC(c2ccccc2)=C(C(=O)OCc2cccc([N+](=O)[O-])c2)C1C#Cc1ccccc1 (racemic) [Compound 122f, 3-Ethyl 5-(3-nitrobenzyl)-4-phenylethynyl-6-phenyl-1,4(±)-dihydropyridine-3,5-dicarboxylate]",inhibition at 100 µM,A1 receptors; [15],28 ± 2%
same,inhibition at 100 µM,"A2a receptors; Table 12, read-out: displacement of specific binding rA2A",< 10%
C=CCOC(=O)C1=C(C)NC(c2ccccc2)=C(C(=O)OCC)C1/C=C/c1ccc([N+](=O)[O-])cc1 (stereo not shown) [Compound 117],inhibition at 100 µM,"A1 receptors; Table 12, read-out: displacement of specific binding rA1",< 10%
same,inhibition at 100 µM,A2a receptors; [14],15%
O=C(Cc1ccc([N+](=O)[O-])cc1)Nc1nc2ccc(Cl)cc2c2nc(-c3ccco3)nn12 [Compound 162],Ki,"A1 receptors; Table 16, [3H]R-PIA, rat brain membranes, read-out: Ki rA1",0.028 µM
same,Ki,human A3 receptors; [9],0.0087 ± 0.00097 µM
"Nc1nc2ccc(Cl)cc2c2nc(-c3ccco3)nn12 [Compound 144, reference compound]",Ki,human A3 receptors; read-out: Ki hA3,0.0138 ± 0.0024 µM
CCOC(=O)C1=C(C)NC(c2ccccc2)=C(C(=O)OCC)C1/C=C/c1ccc([N+](=O)[O-])cc1 (stereo not shown) [Compound 118],inhibition at 100 µM,A1 receptors; [15],31%
same,inhibition at 100 µM,A2a receptors; [14],26%
"COc1ccc(-c2oc3cc(OC)cc(OC)c3c(=O)c2OC)cc1 [Compound 35, 3,4',5,7-tetramethoxyflavone]",Ki,"A1 receptors; Table 6, [3H]PIA, rat brain membranes, read-out: K2 (rA1)",1.07 µM
same,Ki,human A3 receptors; [7],3.37 ± 1.83 µM
